Data: EP2396329B1, “COMPOUNDS FOR THE TREATMENT OF HEPATITIS C” (priority 2009, dated 2010)
Read-outs that look alike come from different tables or passages of the source.

Experiments:
HCV replicon = HCV replicon assay (FRET or luciferase readout); type: cell-based; details: Hepatitis C virus
Description: FRET Assay Preparation. To perform the HCV FRET screening assay, 96-well cell culture plates were used. The FRET peptide (Anaspec, Inc.) (Taliani et al., Anal. Biochem. 1996, 240, 60-67) contains a fluorescence donor, EDANS, near one end of the peptide and an acceptor, DABCYL, near the other end. The fluorescence of the peptide is quenched by […] resonance energy transfer (RET) between the donor and the acceptor, but as the NS3 protease cleaves the peptide the products are released from RET quenching and the fluorescence of the donor becomes apparent. The assay reagent was made as follows: 5X cell Luciferase cell culture lysis reagent from Promega (#E153A) diluted to 1X with dH2O, NaCl added to 150 mM final, the FRET peptide diluted to 20 µM final from a 2 mM stock.
To prepare plates, HCV replicon cells, with or without a Renilla luciferase reporter gene, were trypsinized and placed into each well of a 96-well plate with titrated test compounds added in columns 3 through 12; columns 1 and 2 contained a control compound (HCV protease inhibitor), and the bottom row contained cells without compound. The plates were then placed in a CO2 incubator at 37 °C.
Assays. Subsequent to addition of the test compounds described above (FRET Assay Preparation), at various times the plate was removed and Alamar blue solution (Trek Diagnostics, #00-100) was added per well as a measure of cellular toxicity. After reading in a Cytoflour 4000 instrument (PE Biosystems), plates were rinsed with PBS and then used for FRET assay by the addition of 30 ul of the FRET peptide assay reagent described above (FRET Assay Preparation) per well. The plate was then placed into the Cytoflour 4000 instrument which had been set to 340 excite/490 emission, automatic mode for 20 cycles and the plate read in a kinetic mode. Typically, the signal to noise using an endpoint analysis after the reads was at least three-fold. Alternatively, after Alamar blue reading, plates were rinsed with PBS, 50 ul of DMEM (high glucose) without phenol red was added and plates were then used for luciferase assay using the Promega Dual-Glo Luciferase Assay System.
Compound analysis was determined by quantification of the relative HCV replicon inhibition and the relative cytotoxicity values. To calculate cytoxicity values, the average Alamar Blue fluorescence signals from the control wells were set as 100% non-toxic. The individual signals in each of the compound test wells were then divided by the average control signal and multiplied by 100% to determine […]. To calculate the HCV replicon inhibition values, an average background value was obtained from the two wells containing the highest amount of HCV protease inhibitor at the end of the assay period. These numbers were similar to those obtained from naïve Huh-7 cells.
The background numbers were then subtracted from the average signal obtained from the control wells and this number was used as 100% activity. The individual signals in each of the compound test wells were then divided by the averaged control values after background subtraction and multiplied by 100% to determine percent activity. EC50 values for a protease inhibitor titration were calculated as the concentration which caused a 50% reduction in FRET or luciferase activity. The two numbers generated for the compound plate, percent cytoxicity and percent activity were used to determine compounds of interest for further analysis.

HCV NS5B = biological target: T1, HCV NS5B (Hepatitis C virus genotype 1b, UniProt Q9WMX2); assay: HCV NS5B RdRp enzyme assay (standard or modified); type: biochemical
T1 construct: The protein was expressed with an 18 amino acid C-terminal truncation to enhance the solubility; made in house; host or cells: E. coli BL21(DE3)
T1 sequence (Q9WMX2 2420-2992): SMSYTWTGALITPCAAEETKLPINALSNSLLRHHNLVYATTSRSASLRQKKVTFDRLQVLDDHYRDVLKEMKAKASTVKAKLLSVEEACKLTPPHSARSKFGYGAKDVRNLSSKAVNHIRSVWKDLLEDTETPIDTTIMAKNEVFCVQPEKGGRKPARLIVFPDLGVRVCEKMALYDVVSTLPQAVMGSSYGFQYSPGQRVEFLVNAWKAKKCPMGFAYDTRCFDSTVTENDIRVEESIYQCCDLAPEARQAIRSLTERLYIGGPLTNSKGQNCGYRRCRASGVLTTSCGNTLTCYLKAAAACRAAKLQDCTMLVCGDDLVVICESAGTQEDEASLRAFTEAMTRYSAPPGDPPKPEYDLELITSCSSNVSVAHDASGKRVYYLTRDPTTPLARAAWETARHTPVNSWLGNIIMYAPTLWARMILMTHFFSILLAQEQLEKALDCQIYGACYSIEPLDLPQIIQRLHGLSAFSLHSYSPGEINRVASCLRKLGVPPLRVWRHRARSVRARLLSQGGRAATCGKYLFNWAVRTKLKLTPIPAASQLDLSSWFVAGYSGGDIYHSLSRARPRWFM
Experimental: HCV NS5B RdRp cloning, expression, and purification. The cDNA encoding the NS5B protein of HCV, genotype 1b, was cloned into the pET21a expression vector. The protein was expressed with an 18 amino acid C-terminal truncation to enhance the solubility. The E. coli competent cell line BL21(DE3) was used for expression of the protein. Cultures were grown at 37 °C for ~ 4 hours until the cultures reached an optical density of 2.0 at 600 nm. The cultures were cooled to 20 °C and induced with I mM IPTG. Fresh ampicillin was added to a final concentration of 50 µg/ml and the cells were grown overnight at 20 °C.
Cell pellets (3L) were lysed for purification to yield 15-24 mgs of purified NS5B. The lysis buffer consisted of 20 mM Tris-HCl, pH 7.4, 500 mM NaCl, 0.5% triton X-100, 1 mM DTT, 1mM EDTA, 20% glycerol, 0.5 mg/ml lysozyme, 10 mM MgCl2, 15 ug/ml deoxyribonuclease I, and Complete TM protease inhibitor tablets (Roche). After addition of the lysis buffer, frozen cell pellets were resuspended using a tissue homogenizer. To reduce the viscosity of the sample, aliquots of the lysate were sonicated on ice using a microtip attached to a Branson sonicator. The sonicated lysate was centrifuged at 100,000 x g for 1hr at 4 °C and filtered through a 0.2 µm filter unit (Corning).
The protein was purified using three sequential chromatography steps: Heparin sepharose CL-6B, polyU sepharose 4B, and Hitrap SP sepharose (Pharmacia). The chromatography buffers were identical to the lysis buffer but contained no lysozyme, deoxyribonuclease I, MgCl2 or protease inhibitor and the NaCl concentration of the buffer was adjusted according to the requirements for charging the protein onto the column. Each column was eluted with a NaCl gradient which varied in length from 5-50 column volumes depending on the column type. After the final chromatography step, the resulting purity of the enzyme is >90% based on SDS-PAGE analysis. The enzyme was aliquoted and stored at -80 °C.
Standard HCV NS5B RdRp enzyme assay. HCV RdRp genotype 1b assays were run in a final volume of 60 µl in 96 well plates (Costar 3912). The assay buffer is composed of 20 mM Hepes, pH 7.5, 2.5 mM KCI, 2.5 mM MgCl2, 1 mM DTT, 1.6 U RNAse inhibitor (Promega N2515), 0.1 mg/ml BSA (Promega R3961), and 2 % glycerol. All compounds were serially diluted (3-fold) in DMSO and diluted further in water such that the final concentration of DMSO in the assay was 2%. HCV RdRp genotype Ib enzyme was used at a final concentration of 28 nM. A polyA template was used at.6 nM, and a biotinylated oligo-dT12 primer was used at 180 nM final concentration. Template was obtained commercially (Amersham 27-4110). Biotinylated primer was prepared by Sigma Genosys. 3H-UTP was used at 0.6 µCi (0.29 µM total UTP). Reactions were initiated by the addition of enzyme, incubated at 30 °C for 60 min, and stopped by adding 25 µl of 50 mM EDTA containing SPA beads (4 µg/µl, Amersham RPNQ 0007). Plates were read on a Packard Top Count NXT after > 1hr incubation at room temperature.
Modified HCV NS5B RdRp enzyme assay. A modified enzyme assay was performed essentially as described for the standard enzyme assay except for the following: The biotinylated oligo dT12 primer was precaptured on streptavidin-coated SPA beads by mixing primer and beads in assay buffer and incubating at room temperature for one hour. Unbound primer was removed after centrifugation. The primer-bound beads were resuspended in 20 mM Hepes buffer, pH 7.5 and used in the assay at final concentrations of 20 nM primer and 0.67 µg/µl beads. Order of addition in the assay: enzyme (14 nM) was added to diluted compound followed by the addition of a mixture of template (0.2 nM), 3H-UTP (0.6 µCi, 0.29 µM), and primer-bound beads, to initiate the reaction; concentrations given are final. Reactions were allowed to proceed for 4 hours at 30° C.
IC50 values for compounds were determined using seven different [I]. […]

[1] = HCV replicon cells, FRET or luciferase activity, read-out: EC50
[2] = HCV NS5B RdRp enzyme, genotype 1b, read-out: IC50

Row | SMILES | EC50 (HCV replicon) [µM] | IC50 (HCV NS5B) [µM] | EC50 (HCV replicon; [1]) [µM] | IC50 (HCV NS5B; [2]) [µM]
1 | CCn1ncc(C(=O)N2CC3CCC(C2)N3C)c1C1=Cc2cc(OC)ccc2-c2c(C3CCCCC3)c3ccc(C(=O)NS(=O)(=O)C(C)C)cc3n2C1 | 0.001 to 0.5 | 0.001 to 0.5 |  | 
2 | COc1ccc2c(c1)C=C(c1c(C(=O)N3C[C@@H](C)O[C@@H](C)C3)nnn1C(C)C)Cn1c-2c(C2CCCCC2)c2ccc(C(=O)NS(=O)(=O)C(C)C)cc21 |  |  | 0.001 to 0.5 | 0.001 to 0.5
3 | COc1ccc2c(c1)C=C(c1c(C(=O)N3CCN(C)CC3)c(C)nn1C)Cn1c-2c(C2CCCCC2)c2ccc(C(=O)NS(=O)(=O)C(C)C)cc21 |  |  | 0.001 to 0.5 | 0.001 to 0.5
4 | COc1ccc2c(c1)C=C(c1c(C(=O)N3CCOCC3)nnn1C(C)C)Cn1c-2c(C2CCCCC2)c2ccc(C(=O)NS(=O)(=O)N(C)C)cc21 |  |  | 0.001 to 0.5 | 0.001 to 0.5
